{"source": "paper PMC7371863", "about": "“Intracellular interplay between cholecystokinin and leptin signalling for satiety control in rats” (Scientific Reports, 2020)", "key": {"pSTAT3 in C6-ObRb cells": {"system": "pSTAT3 in C6-ObRb cells", "assay": "Immunofluorescent staining of pSTAT3 in C6-ObRb cells", "type": "cell-based, rat C6 cells, mouse ObRb", "procedure": "Rat C6 glioma cells were cultured in Dulbecco’s Modified Eagle Medium/F12 (DMEM/F12) supplemented with 10% FBS, sodium bicarbonate (1.2 g/L), and 1% penicillin/streptomycin antibiotics at 37 °C in 5% CO2. The full-length mouse leptin receptor (ObRb) in pcDNA3.1 vector was kindly provided by Dr. Christian Bjørbaek (BIDMC, Harvard Medical School, Boston, MA, USA) and transfected using Lipofectamine 2000. Subsequently, the cells were cultured in medium containing 500 μg/mL G418 for cell selection.\n[…] Cells were treatment with AG490 (1 μM) or LY294002 (50 μM) 15 min prior to the leptin stimulation until the time of fixation. These cells were fixed in 4% phosphate-buffered paraformaldehyde for 15 min and washed three times with PBS(−). The fixed samples were then incubated for 2 h at room temperature in 10% donkey serum dissolved in 0.1% Triton-X PBS(−). Next, samples were incubated with 1:100 affinity-purified rabbit phospho-STAT3 (pTyr^705) dissolved in 5% donkey serum PBS(−) for 24 h at 4 °C. After three 20-min PBS(−) rinses, samples were incubated in 1:400 Cy3-conjugated donkey anti-rabbit IgG for 2 h at room temperature. Finally, samples were rinsed with PBS(−) (four 15-min rinses on an orbital shaker) and mounted using Vectashield containing 4′,6-diamidino-2-phenylindole (DAPI).\n(§1) Images were acquired using a confocal laser-scanning microscope (Olympus FV1000 or Nikon A1R MP plus) with a laser diode (405 nm), argon laser (488 nm), and helium neon laser ([…]). The nuclear immunofluorescent intensity (8-bit depth) was analyzed using Photoshop CS 6 software."}, "VMN cells": {"system": "VMN cells", "assay": "Ca2+ imaging in rat VMN slices", "type": "cell-based", "details": "for cells responding exclusively to leptin or CCK-8s, VMN (discussion): approximately, population analysis; for Rmax, Ca2+ concentration response / EC50: four-parameter Hill function; for EC50: read-out: EC50, Ca2+ concentration response"}, "VMN neurons": {"system": "VMN neurons", "assay": "Whole cell patch clamp, action potential firing in VMN neurons", "type": "cell-based, rat", "details": "for action potential firing frequency: n.s.", "procedure": "The VMH slices (300-μm thickness) were prepared following deep pentobarbital anaesthesia administration to postnatal day (PD) 12–16 rats using a vibrating blade microtome in ice-cold high-Mg^2+ artificial cerebrospinal fluid (ACSF) containing 138.6 mM NaCl, 3.35 mM KCl, 21 mM NaHCO3, 0.6 mM NaH2PO4, 9.9 mM D-glucose, 0.5 mM CaCl2, and 4 mM MgCl2 bubbled with 95% O2/5% CO2. The slices were incubated at room temperature for 1 h in regular ACSF containing 2.5 mM CaCl2, and 1.0 mM MgCl2 bubbled with 95% O2/5% CO2. Subsequently, the slices were transferred to an upright microscope stage (Olympus BX50WI). The recording chamber was perfused with oxygenated normal ACSF at 3 ml/min at 34 °C. VMN neurons were visualized through an infrared CCD camera (Hamamatsu Photonics C2741-79). Neurons were recorded in the whole-cell current-clamp mode using a patch-clamp amplifier (Axon Instruments Axopatch 200B). The recordings were performed using patch pipettes with an access resistance of 4–6 MΩ and internal solution containing 135 mM potassium gluconate, 5 mM KCl, 10 mM HEPES, 0.1 mM CaCl2, 1.0 mM EGTA, 10 mM phosphocreatine, 2 mM Mg-ATP, and 0.2 mM Na-GTP (pH adjusted to 7.3 with KOH). The output of the amplifier was digitised using an A/D converter board (Axon Instruments Digidata 1200) with a sampling rate of 10 kHz and recorded on a hard disk by data acquisition software (Axon Instruments pCLAMP 8). Membrane potentials were low-pass-filtered at 2 kHz. Resting membrane potentials less than − 60 mV were set to approximately − 60 mV by current injections. Stimulants were applied by the gravity drop perfusion system. Further details of electrophysiological recordings were described previously."}, "[1]": {"system": "nuclear pSTAT3 in the rat VMN", "assay": "Nuclear pSTAT3-ir in VMN after i.c.v. injection", "type": "in vivo", "procedure": "A guide cannula (cut length 5 mm, no. C315G; Plastics One Inc.) was stereotaxically implanted to the right lateral ventricle of each rat, with the coordinates of 0.8 mm posterior to the bregma, 1.4 mm lateral to the midline, and 3.3 mm ventral from the skull surface. The canula was secured on the skull surface with two stainless steel screws and dental acrylic resin. The rats were then allowed to recover in their home cage for at least 1 week. Leptin (4 µg) and CCK (2 µg) were dissolved in 4 µl ACSF and administered through an internal cannula (cut length 5.5 mm, no. C315I; Plastics One Inc. C315I). To minimize the effect of endogenous signals, the rats were deprived of food for 10 h (08:00–18:00) before i.c.v. administration. Drugs were infused at a flow rate of 1 µl/min over 4 min using a motorized syringe pump (Carnegie Medicine model CMA/102), followed by another 4 min of rest for diffusion. One hour after i.c.v. administration, the rat brain was removed for immunohistochemical analysis.\nFor immunohistochemical analysis of rat hypothalamic slices, animals were deeply anesthetized with an i.p. injection of sodium pentobarbital (50 mg/kg) and transcardially perfused with PBS(−) for 5 min followed by ice-cold 4% (w/v) paraformaldehyde in PBS(−) for 15 min. The brain was removed and further fixed in the same fixative (4 °C, overnight). Then, the olfactory bulbs and/or cerebellum were removed from the brain in ice-cold PBS(−). Pre-trimmed brain tissues were immersed in 30% (w/v) sucrose and stored overnight at 4 °C. The fixed and cryoprotected brain tissues were embedded with OCT compound. Frozen sections of 30 µm thickness were cut using a cryostat microtome and washed three times with PBS(−) in 24-well plates, after which they were mounted on glass slides. […]\nas §1"}, "ARC cells": {"system": "ARC cells", "type": "cell-based, rat", "details": "leptin 500 nM; 12 slices; 0.5 µM tetrodotoxin; 34 °C; mean with standard error"}, "[2]": {"details": "leptin with co-stimulation of 1 nM CCK-8s"}}, "note": "Read-outs that look alike come from different tables or passages of the source."}
{"substance": "CCK-8s [reference compound]", "values": [{"measurement": "cytosolic pSTAT3-ir", "setting": "pSTAT3 in C6-ObRb cells; CCK-8s 50 nM", "result": "induced cytosolic pSTAT3-ir"}, {"measurement": "nuclear pSTAT3-ir on co-stimulation versus leptin alone", "setting": "pSTAT3 in C6-ObRb cells; CCK-8s 50 nM with leptin 100 nM, 30 images/three dishes, p < 0.01", "result": "significantly smaller than that by leptin stimulation alone"}, {"measurement": "nuclear intensity of pSTAT3-ir versus unstimulated controls", "setting": "pSTAT3 in C6-ObRb cells; CCK-8s 50 nM, 30 images/three dishes, p < 0.01", "result": "significantly smaller in the CCK-8s-treated group than in unstimulated controls"}, {"measurement": "Ca2+ transients in slice preparation", "setting": "VMN cells; CCK-8s 1 nM alone, n = 216 in 18 slices", "result": "failed to evoke Ca^2+ transients"}, {"measurement": "effect of co-stimulation on leptin-induced Ca2+ responses", "setting": "VMN cells; CCK-8s 1 nM with leptin 1–1,000 nM, p < 0.01 two-way ANOVA", "result": "amplified leptin-induced Ca^2+ responses"}, {"measurement": "cells that exclusively responded to CCK-8s, VMN", "setting": "VMN cells; CCK-8s 10 nM versus leptin 500 nM, 11 slices, mean with standard error", "result": "5.2 ± 1.1", "unit": "%"}, {"measurement": "leptin responders also responding to CCK-8s, VMN", "setting": "VMN cells; CCK-8s 10 nM, leptin 500 nM, 11 slices, mean with standard error", "result": "81.3 ± 9.1", "unit": "%"}, {"measurement": "cells responding exclusively to leptin or CCK-8s, VMN (discussion)", "setting": "VMN cells; leptin 500 nM and CCK-8s 10 nM", "result": "5–12%"}, {"measurement": "cells showing leptin-induced Ca2+ increase that also responded to CCK-8s (discussion)", "setting": "VMN cells; leptin 500 nM and CCK-8s 10 nM", "result": "more than 80%"}, {"measurement": "action potential firing frequency", "setting": "VMN neurons; CCK-8s 1 nM, n = 9, spontaneous 1.45 ± 0.07 Hz, − 60 mV, 34 °C", "result": "1.28 ± 0.15", "unit": "Hz"}, {"measurement": "nuclear pSTAT3 levels in VMN versus single leptin injection", "setting": "[1]; CCK-8s 2 µg co-injected with leptin 4 µg i.c.v.", "result": "reduced nuclear pSTAT3 levels in the rat VMN compared with single leptin injections"}]}
{"substance": "leptin: peptide hormone secreted from white adipocyte tissue, product of the obese gene; PeproTech Cat#450-31", "values": [{"measurement": "nuclear pSTAT3-ir", "setting": "pSTAT3 in C6-ObRb cells; leptin 100 nM, 30 images/three dishes, p < 0.01 one-way ANOVA", "result": "significantly increased pSTAT3-ir in the nuclei"}, {"measurement": "cells responding exclusively to leptin or CCK-8s, VMN (discussion)", "setting": "VMN cells; leptin 500 nM and CCK-8s 10 nM", "result": "5–12%"}, {"measurement": "cells that exclusively responded to leptin, VMN", "setting": "VMN cells; leptin 500 nM versus CCK-8s 10 nM, 11 slices, mean with standard error", "result": "12.2 ± 1.5", "unit": "%"}, {"measurement": "cells with monophasic Ca2+ increase, VMN", "setting": "VMN cells; leptin 500 nM, 11 slices, 0.5 µM tetrodotoxin, 34 °C, mean with standard error", "result": "65.4 ± 7.5", "unit": "%"}, {"measurement": "Rmax, Ca2+ concentration response", "setting": "VMN cells; leptin alone", "result": 0.2}, {"measurement": "EC50", "setting": "VMN cells; leptin alone", "result": 153, "unit": "nM"}, {"measurement": "Rmax, Ca2+ concentration response", "setting": "VMN cells; leptin with 1 µM LGM", "result": 0.14}, {"measurement": "EC50", "setting": "VMN cells; leptin with 1 µM LGM", "result": 163, "unit": "nM"}, {"measurement": "Rmax, Ca2+ concentration response", "setting": "VMN cells; [2]", "result": 0.26}, {"measurement": "EC50", "setting": "VMN cells; [2]", "result": 42.8, "unit": "nM"}, {"measurement": "cells with monophasic Ca2+ increase, ARC", "setting": "ARC cells", "result": "25.9% ± 4.5"}, {"measurement": "neurons with apparent (> twofold) increase in firing frequency, co-stimulation", "setting": "VMN neurons; leptin 30 nM with CCK-8s 1 nM", "result": "Five neurons in nine recordings"}, {"measurement": "action potential firing frequency, co-stimulation", "setting": "VMN neurons; leptin 30 nM with CCK-8s 1 nM, n = 9, p < 0.01, spontaneous 1.45 ± 0.07 Hz, − 60 mV, 34 °C", "result": "3.49 ± 0.68", "unit": "Hz"}, {"measurement": "highest action potential firing frequency, co-stimulation", "setting": "VMN neurons; leptin 30 nM with CCK-8s 1 nM, single neuron maximum", "result": 5.5, "unit": "Hz"}, {"measurement": "action potential firing frequency", "setting": "VMN neurons; leptin 30 nM, n = 9, spontaneous 1.45 ± 0.07 Hz, − 60 mV, 34 °C", "result": "1.55 ± 0.13", "unit": "Hz"}, {"measurement": "number of nuclear pSTAT3-ir in VMN relative to vehicle-injected control", "setting": "[1]; leptin 4 µg i.c.v., 1 h, 10 h food-deprived, p < 0.01", "result": "three times"}, {"measurement": "number of nuclear pSTAT3-ir in VMN, co-administration, versus vehicle", "setting": "[1]; leptin 4 µg with CCK-8s 2 µg i.c.v., 1 h, n.s.", "result": "failed to increase the number of nuclear pSTAT3-ir"}]}
